Here are results for one compound from patent US20100298244A1, “COMPOSITION FOR THE PREVENTION AND THE TREATMENT OF HELICOBACTER PYLORI INFECTION” (NATIONAL TAIWAN UNIVERSITY, priority 2009, published 2010).

The structures appear in SMILES notation.

The experiment relates to 20 Helicobacter pylori strains. In words: MIC by agar dilution method. Type of experiment: cell-based. For orientation: In agar dilution the substance is mixed into plates at graded concentrations.

Broadly, the MIC is the least concentration at which growth counts as inhibited. As a reminder, the MIC90 is the lowest concentration that inhibits either 90% of growth or 90% of the strains tested, depending on the study. As for `CC(=O)N[C@H]1[C@H]([C@H](O)[C@H](O)CO)OC(O)(C(=O)O)C[C@@H]1O` (stereo partly shown) [Sialic acid, N-Acetylneuraminic acid], the “MIC Range” value (20 H. pylori strains (10 resistant to metronidazole and clarithromycin, 10 sensitive)) is >4000 µg/mL. The MIC (Helicobacter pylori, 20 H. pylori strains, read-out: MIC For 50% of strains) was > 4000 µg/mL. In addition, under “Helicobacter pylori, 20 H. pylori strains, read-out: MIC For 90% of strains (MIC90)”, the MIC90 is > 4000 µg/mL. Also, the “inhibitory activity against Helicobacter pylori” value (alone) is “did not show any inhibitory activity”.
